According to PubChem BioAssay (NCI):
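Tested at 5 concentrations; 48 h exposure; 96-well plates; endpoints linearly interpolated, else capped at highest concentration. At the GI50, growth is halved. TGI: total growth inhibition.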

How the values were obtained:
Assay in all cases: inhibition of tumour cell growth, NCI panel, 48 h
HL-60(TB) leukemia = system: HL-60(TB) leukemia
MDA-MB-435 = system: MDA-MB-435
PC-3 prostate = system: PC-3 prostate
SK-OV-3 ovarian = system: SK-OV-3 ovarian
A498 renal = system: A498 renal
SNB-75 CNS = system: SNB-75 CNS
SK-MEL-28 melanoma = system: SK-MEL-28 melanoma
EKVX NSCLC = system: EKVX NSCLC
M14 melanoma = system: M14 melanoma
DU-145 prostate = system: DU-145 prostate

Compound | TGI (HL-60(TB) leukemia) [µM] | TGI (MDA-MB-435) [µM] | TGI (PC-3 prostate) [µM] | TGI (SK-OV-3 ovarian) [µM] | TGI (A498 renal) [µM] | TGI (SNB-75 CNS) [µM] | TGI (SK-MEL-28 melanoma) [µM] | TGI (EKVX NSCLC) [µM] | TGI (M14 melanoma) [µM] | GI50 (MDA-MB-435) [µM] | GI50 (PC-3 prostate) [µM] | GI50 (SK-OV-3 ovarian) [µM] | GI50 (A498 renal) [µM] | GI50 (EKVX NSCLC) [µM] | GI50 (M14 melanoma) [µM] | GI50 (DU-145 prostate) [µM] | TGI (DU-145 prostate) [µM] | GI50 (SNB-75 CNS) [µM] | GI50 (SK-MEL-28 melanoma) [µM] | GI50 (HL-60(TB) leukemia) [µM]
O=C1Nc2c(Cl)cc(Cl)cc2/C1=N/N=C/c1ccco1 | > 100 | > 100 | > 100 | > 100 | 57.7 | 42.7 | > 100 | 84.9 | > 100 | – | – | – | – | – | – | – | – | – | – | –
Oc1ccccc1-c1nn(CNc2ccc(Cl)cc2)c(=S)o1 | – | > 100 | > 100 | > 100 | > 100 | – | – | > 100 | > 100 | 3.21 | > 100 | > 100 | > 100 | > 100 | 28.3 | – | – | – | – | –
CCCCN(CC)C(=O)C(=O)Cc1nc2ccc(C(=O)c3ccccc3)cc2[nH]c1=O | > 31.6 | – | – | > 100 | > 100 | > 88.1 | > 100 | > 100 | > 100 | – | – | – | – | – | – | – | – | – | – | –
CSc1cc([C@@H]2C[C@H]2c2ccc(Cl)cc2)on1 | – | 45.1 | 33.6 | > 100 | – | 49.5 | 96.7 | 55.8 | > 100 | 16.8 | 16 | 50.6 | – | 29.8 | 9.27 | 19.6 | 42 | 21.3 | 24.5 | –
O=[N+]([O-])c1nccn1CC(O)c1ccccc1 (centres undefined) | > 100 | – | – | > 100 | > 100 | > 100 | > 100 | > 100 | > 100 | – | – | – | – | – | – | – | – | – | – | –
CC(Oc1ccc2c(-c3ccc(Cl)cc3)cc(=O)oc2c1)C(=O)O (centres undefined) | > 100 | – | – | > 100 | > 100 | > 100 | > 100 | > 100 | > 100 | – | – | – | – | – | – | – | – | – | – | –
C=CCC1(C(=O)OC)CCC/C(=N\O)C1 (centres undefined) | > 10 | > 10 | > 10 | > 10 | – | > 10 | > 10 | – | > 10 | – | – | – | – | – | – | – | > 10 | – | – | –
O=S1(=O)c2ccccc2N(O)C2=NCCN21 | > 100 | – | – | > 100 | > 100 | > 100 | > 100 | > 100 | > 100 | – | – | – | – | – | – | – | – | – | – | –
COC(=O)CCC(=O)Nc1ccc(Cl)cc1C | 13.6 | – | – | > 100 | > 79 | > 100 | > 100 | > 100 | > 100 | – | – | – | – | – | – | – | – | – | – | –
CCCCCCCCCCCCSC(=S)c1c(C)[nH]n(-c2ccccc2)c1=O | 24.4 | – | – | > 50 | > 50 | – | > 50 | > 50 | > 50 | – | – | – | – | – | – | – | – | – | – | –
CC(C)(C)C(=O)N1C(C(=O)O)Cc2ccccc2[C@@H]1Cc1ccccc1 (some centres undefined) | > 100 | – | – | > 100 | > 100 | > 100 | > 100 | > 100 | > 100 | – | – | – | – | – | – | – | – | – | – | –
COc1ccc(N2C(=O)C3CC(c4ccc(Br)cc4)c4c([nH]c5ccccc45)C3C2=O)cc1 (centres undefined) | > 100 | – | – | – | 22.3 | 22.5 | 28.5 | 42.7 | > 100 | – | – | – | – | – | – | – | – | – | – | –
[N-]=[N+]=NCN1C(=O)C2C3C=CC(C2C1=O)C1C2C(=O)N(CN=[N+]=[N-])C(=O)C2C31 (centres undefined) | – | > 100 | > 100 | – | – | – | > 100 | > 100 | > 100 | – | – | – | – | – | – | – | > 100 | – | – | –
O=C1c2ccccc2C(=O)N1CCc1ncc(-c2ccccc2)[nH]1 | > 100 | – | > 100 | > 100 | > 100 | > 100 | > 100 | > 100 | > 100 | – | – | – | – | – | – | – | > 100 | – | – | –
c1ccc(SC(Sc2ccccc2)=C2CCC2)cc1 | > 100 | – | – | > 100 | > 100 | > 100 | > 100 | > 100 | > 100 | – | – | – | – | – | – | – | – | – | – | –
CCOC(=O)C12CCCC1(O)N(NC(=O)OC)C(C)=C2C(=O)OC (centres undefined) | > 100 | – | – | > 100 | > 100 | – | > 100 | > 100 | > 100 | – | – | – | – | – | – | – | – | – | – | –
COC(=O)/C=C1/SC(=Nc2cccc(Cl)c2)N(CCc2c[nH]c3ccc(O)cc23)C1=O | 6.09 | 3.96 | 3.87 | 5.01 | – | 5.1 | 3.33 | 5.51 | 3.36 | 1.68 | 1.74 | 2.24 | – | 2.19 | 1.62 | 1.86 | 4.81 | 2.11 | 1.69 | 1.79
C=C(C)[C@@H]1CC[C@]2(CO)CC[C@]3(C)[C@H](CC[C@@H]4[C@@]5(C)CCCNC(C)(C)[C@@H]5CC[C@]43C)[C@@H]12 | – | – | 2.94 | 3.49 | 5.63 | 2.91 | 3.16 | 3.03 | 3.13 | – | 1.51 | 1.83 | 2.17 | 1.55 | 1.58 | 1.63 | 3.02 | 1.54 | 1.62 | –
Nc1ncc(-c2ccc3ncnc(Nc4cccc(Cl)c4)c3c2)cn1 | – | – | > 100 | – | – | 0.695 | – | – | – | – | 1.48 | – | – | – | – | 0.809 | > 100 | 0.109 | – | 0.525
O=C(CC1(O)C(=O)Nc2c(Cl)cc(Cl)cc21)c1ccccc1 (centres undefined) | > 100 | – | – | > 100 | > 100 | > 100 | > 100 | > 100 | > 100 | – | – | – | – | – | – | – | – | – | – | –
COc1ccc(C(=O)C2CCC(C(=O)O)C2)cc1 (centres undefined) | > 100 | – | – | > 100 | > 100 | > 100 | > 100 | > 100 | > 100 | – | – | – | – | – | – | – | – | – | – | –
Nc1nc(=O)n(C2CCC(CO)O2)cc1F (centres undefined) | > 100 | – | – | > 100 | – | > 100 | > 100 | > 100 | > 100 | – | – | – | – | – | – | – | – | – | – | –
NC(=S)N/N=C/c1ccc(OC(=O)COc2cc(Cl)c(Cl)cc2Cl)cn1 | 47.9 | > 100 | > 100 | > 100 | > 100 | – | > 100 | – | 5.75 | 6.68 | 4.59 | 8.49 | 14.2 | – | 2.38 | 3.52 | 27.3 | – | 13.1 | 3.97
